The nature of series [1]: Tolerability of treated rats in the corneal micropocket study. The format is in vivo, Sprague Dawley rat. The note with it: oral, 50 mg/kg/day for 7 days. The procedure: To further investigate the antiangiogenic activity of arsenolite in vivo, the inhibitory effect of systematically administered arsenolite on bFGF-induced neovascularization was studied. The corneal micropocket assay was performed by slight modification of a reported procedure (Polverim P J, Bouck N P, Rastinejad F. Assay and purification of naturally occurring inhibitor of angiogenesis, Methods Enzymol. 1991; 198: 440-450). That is, rats were anesthetized with ketamine. A corneal pocket was made by inserting a cataract knife, with the pocket's base 1-1.5 mm from the limbus. […] The corneal neovascularization in both eyes of all animals were examined daily with a slit lamp and the angiogenic responses were evaluated on day 7. The area of conical neovascularization was determined by measuring with a reticule the vessel length (L) from the limbus and the number of clock hours (C) of limbus involved as previously reported (D'Amato R I, Loughnan M S, Flynn E, Foulkman J, Thalidomide is an inhibitor of angiogenesis. Proc Natl Acad Sci USA Apr. 26, 1994; 91(9):4082-5). A formula was used to determine the area of a circular band segment: C/12×3.1416[r^2−(rL)^2], where r=5 mm, the measured radius of rat cornea. […]

The subject of series [2] is bFGF-induced rat corneal neovascularization. The series can be described thus: Corneal micropocket angiogenesis assay. The format is in vivo, Sprague Dawley rat. The note with it: oral; for bFGF-induced corneal neovascularization: 50 mg/kg/day for 7 days. Here is the method:
To further investigate the antiangiogenic activity of arsenolite in vivo, the inhibitory effect of systematically administered arsenolite on bFGF-induced neovascularization was studied. The corneal micropocket assay was performed by slight modification of a reported procedure (Polverim P J, Bouck N P, Rastinejad F. Assay and purification of naturally occurring inhibitor of angiogenesis, Methods Enzymol. 1991; 198: 440-450). That is, rats were anesthetized with ketamine. A corneal pocket was made by inserting a cataract knife, with the pocket's base 1-1.5 mm from the limbus. Pellets were made by mixing 30 μl of saline containing 2 μg of recombinant bFGF (R&D Systems, Minneapolis, Minn. U.S.A.) with 300 μg of sucralfate (Sigma, St. Louis, Mo., U.S.A.); this suspension was added to 30 μl of 12% (wt/vol) poly (2-hydroxyethyl methacylate) (Sigma, St. Louis, Mo., U.S.A.) in ethanol. Aliquots of this mixture were then pined onto Teflon pegs and allowed to dry producing approximately 17 pellets so that each pellet contains approximately 100 ng of bFGF. A pellet was implanted into corneal micropockets of each eye of an anesthetized male Sprague Dawley rat, followed by a single topical application of erythromycin ointment on the surface of the cornea. The animals were fed daily from the day of implantation by gastric lavage with 50 mg/kg of arsenolite powder for the treatment group, and the same foods and water without arsenolite for the control group. The corneal neovascularization in both eyes of all animals were examined daily with a slit lamp and the angiogenic responses were evaluated on day 7. The area of conical neovascularization was determined by measuring with a reticule the vessel length (L) from the limbus and the number of clock hours (C) of limbus involved as previously reported (D'Amato R I, Loughnan M S, Flynn E, Foulkman J, Thalidomide is an inhibitor of angiogenesis. Proc Natl Acad Sci USA Apr. 26, 1994; 91(9):4082-5). A formula was used to determine the area of a circular band segment: C/12×3.1416[r^2−(rL)^2], where r=5 mm, the measured radius of rat cornea.

The subject of another series is BCE cells. The series can be described thus: Tube formation assay in 3-D fibrin gel culture. The note with it: 100 nM, bFGF 10 ng/ml, 48 or 96 hours. The format is cell-based, bovine. The procedure:
To investigate the effect of arsenolite on the maturation of angiogenesis, particularly, tubular structure formation of capillary endothelial cells, BCE cells were cultured using three dimensional cultures on the fibrin gel.
Fibrin gels were prepared by following a reported procedure (Bastaki M, Nelli E E, Dell'Era P, Rusnati M, Molinari-Tosatti M P, Parolini S, Auerbach R, Ruco L P, Possati L, Presta M, Basic fibrolast growth factor-induced angiogenic phenotype in mouse endothelium. A study of aortic and microvascular endothelial cell lines. Arterioscler Thromb Vasc Bio March 1997; 17(3): 454-64). Briefly, 2.5 mg/ml of fibrinogen (Calbiochem, San Diego, Calif.) was dissolved in DMEM and cultured BCE cells were added to a final concentration of 10^5 cells/ml, and clotting was then initiated by addition of thrombin (0.5 unit/ml). The mixture was immediately transferred into 24-well plates and allowed to form gel for 5 minutes at 37° C. Following get formation, 0.5 ml of medium with or without bFGF (10 ng/ml) and arsenolite (100 nM) per well were added. After 48 or 96 hours, tube formation was examined under inverted microscopy.

Series [3] deals with bovine capillary endothelial (BCE) cells. The series can be described thus: Endothelial cell proliferation assay (bFGF-stimulated). The format is cell-based. Here is the method: Male Sprague-Dawley rats weighing 200 g were used as an experimental animal. Arsenolite (solid As4O6) was dissolved in water until it becomes a 1 mM of stock solution, and kept at the room temperature. Bovine capillary endothelial (BCE) cells were provided by Dr. Tae-Hee Lee (Lee, T. H., Rhim, T., and Kim, S. S. (1998). Prothromb inkringle-2 domain has a growth inhibitory activity against basic fibroblast growth factor-stimulated capillary endothelial cells. J. Biol. Chem 273, 28805-28812). BCE cells were preserved in Dulbecco's modified Eagle's medium (DMEM) supplemented with 10% heat-inactivated bovine calf serum (BCS; Hyclone Laboratories, Logan, Utah) L-glutamine (2 mM), penicillin (110 units/ml), streptomycin (100 μg/ml) and 1.5 ng/ml recombinant human basic fibroblast growth factor (bFGF; R&D Systems, Minneapolis, Minn.). Then, the cells were incubated at 37° C. under 10% CO2 condition. The cells between 10-15 passages were employed in this experiment.
Endothelial proliferation assay was performed as described by Cao et al. (Cao, Y., A., An, S. S. A., Ji, R. W., Davodson, D., Cao, Y., and Llinas, M. (1997) Kringle 5 of plasminogen is a novel inhibitor for endothelial cell growth. J. Biol. Chem. 271, 22924-22928). […] After 72 hours of incubation, the cells were trypsinized and counted using a hemocytometer. […]

Series [4] in a line: 28-day oral administration toxicity in rat. The format is in vivo, Sprague Dawley rat.
Series [5] relates to bovine capillary endothelial (BCE) cells. As to the kind of experiment: Chemotaxis assay in modified Boyden chambers (bFGF as chemoattractant). It counts as cell-based. Here is the method:
Chemotaxis assays were performed using modified Boyden chambers, which is equipped with polycarbonate nucleopore membrane (Boyden Chamber, Corning, Coring, N.Y.) described in Journal (Veronique Rigot, Maxime Lehmann, Frederic andre, Noucha Daemi, Jacques Marvaldi and Jose Luis: Integrin ligation and PKC activation are required for migration of colon carcinoma cells. Journal of cell science 111, 3119-3129 (1998)). Pre-coated filters (6.5 mm in diameter, 8 μm pore-size, Matrigel 100 μg/cm^2) were re-hydrated with 250 μl of medium, and 1×10^5 cells in 200 μl medium with or without arsenolite (at concentrations of 10 nM, 20 nM, 50 nM, 100 nM and 200 nM) in triple respectively were seeded into the upper part of each chamber, whereas the lower compartment was filled with 200 μl of serum free DMEM supplemented with 0.1% BSA and with (positive control) or without (negative control) 10 ng/ml bFGF as a chemoattractant. After the cells were incubated at 37° C. for 72 hours, non-migrated cells on the upper surface of the filter were wiped with a cotton swab, and migrated cells on the lower surface of the filter were fixed and stained with 0.125% Cumassie Blue in a mixture of methanol: acetic acid: water at the ratio of 45:10:45 by volume. Chemotaxis was determined by counting cells in five microscopic fields per well, and the extent of migration is expressed as an average number of cells per each microscopic field.

The conditions of series [6]: oral administration; cited from earlier work.

Where two headings read alike, the source gives them in different places.

With `O1[As]2O[As]3O[As]1O[As](O2)O3` [arsenolite, Tetraarsenic oxide], the “weight loss or unusual behavior over the course of the treatment” value in series [1] was “did not experience weight loss or unusual behavior”. In addition, the bFGF-induced corneal neovascularization entry in series [2] was “significantly inhibited”; in series [2] (listed as angiogenesis inhibitor of the present invention) it was “noticeably suppressed”. Also, the “density of corneal vessels compared with control animals” value in series [2] (50 mg/kg/day, day 7) is reported as “markedly reduced”. Moreover, the “inhibition of clock hours of corneal circumferential neovascularization” value in series [2] (50 mg/kg/day, day 7) is recorded as “more than 60%”. Besides, the “inhibition of vessel length of corneal neovascularization” value in series [2] (50 mg/kg/day, day 7) was “more than 60%”. In series [2] (50 mg/kg/day, day 7, area calculated from length and clock hours), the “suppression of area of neovascularization” value is recorded as “approximately 90%”. Moreover, the “generation of tubes by BCE cells” value in the series on BCE cells is given as “reduced”. Further, the IC50 came to 99 nM in series [3] (3 ng/ml bFGF, 72 hours incubation, cell count, read-out: inhibition of BCE cell proliferation, IC50) and 48 nM in series [5] (10 ng/ml bFGF, 72 hours, read-out: inhibition of bFGF-induced invasiveness (chemotaxis), IC50). Moreover, the “cell morphological changes associated with apoptotic endothelial cells (detachment, rounding, fragmentation)” value in series [3] (after a 3-day incubation, 10 to 200 nM) was “No distinct cell morphological changes”; in series [5] (chemotaxis assay, 10 to 200 nM), “none of distinct cell morphological changes”. The side effect entry in series [4] (oral 1 mg/kg for 28 days) and in series [4] (oral 10 mg/kg for 28 days) was “none of side effect was observed” throughout. Further, the “histological alterations in kidney” value in series [4] (oral 100 mg/kg for 28 days) is listed as “only minor histological alterations was observed in kidney”. Moreover, the “side effect on gastrointestinal and liver” value in series [4] (oral 100 mg/kg for 28 days) was “no side affect on gastrointestinal and liver”. Further, in series [5] (at 100 nM, 10 ng/ml bFGF, 72 hours), the “inhibition of bFGF-induced invasiveness (chemotaxis)” value amounted to 83.4%.

With arsenic trioxide, the “side effect on gastrointestinal and liver” value in series [6] was “caused serious side effect on gastrointestinal and liver”.

Source of the values: patent US6703049B2, “Angiogenesis inhibitor” (priority 2000, dated 2004).
